# Measured values reported in US6635648B2, “Combination therapy using sympathetic nervous system antagonists and endothelin antagonists” (Queen's University at Kingston, priority 2000, dated 2003).
# Columns and labels:
# [1] = NO-selectivity of depressor responses before and after maximal NOS blockade with L-NAME; type: in vivo, rat; details: for Change in Depressor Response: after vs before 100 mg/kg L-NAME; for Δ MAP L-NAME 100 mg/kg (mmHg): depressor agent after maximal NOS blockade with 100 mg/kg L-NAME; for Δ MAP Control (mmHg): depressor agent before L-NAME
# Experimental: (§1) Determination of MAP: Three days after surgery, MAP was recorded (PowerLab/8s DAS, ADInstruments, Milford, Mass.). […] An equilibration period of at least 1 hour was allowed prior to any experimentation to establish a steady baseline. […] Mean arterial pressure (MAP) and heart rate (HR) were calculated as an average over five minutes for steady state conditions and 10 seconds for transient drug responses.
# Hypersensitivity to NO-mimetics following NOS blockade is shown to be the result of a specific interaction between ET and depressor agents that target the NO pathway. To confirm the specificity of this interaction, dose responses to a variety of depressor agents targeting both NO-dependent and NO-independent pathways were performed before and after maximal NOS blockade with 100 mg/kg L-NAME. One dose of each depressor agent that decreased MAP by approximately 10 mmHg was chosen for analysis. The agents compared were SNP ([…]; 30 s infusion), 8-bromo-cGMP (8-Br-cGMP; 3000 mg/kg/min; cumulative from 30, 100, 300, 1000, 3000 dose response, 2 min infusion, 3 min between doses), bradykinin (30 mg/kg/min; 30 s infusion), PGE1 ([…]; cumulative dose response, 20 min/dose) and INE (0.2 mg/kg/min; 30 s infusion).
# [2] = Mean arterial pressure (MAP) in conscious catheterised rats after drug treatment; type: in vivo, rat; details: for MAP after terazosin treatment: terazosin 2 mg/kg i.v., SB209670 treated animals (label SB209670) vs animals without SB209670 (label terazosin); for Δ MAP (from initial baseline; mmHg): Table 3, L-NAME 3 mg/kg in the triple combination
# Experimental: Animals: Male Sprague-Dawley rats (250-300 g) from Charles River Laboratories (St. Constant, Quebec) were individually housed under conditions of 12-hour light/dark cycle at a room temperature of 22-24° C. Purina® rodent chow and tap water were provided ad libitum. Rats were housed for at least one day prior to catheter implantation and allowed a minimum of 3 days to recover from the surgery before any experiments. […] Experiments were performed in accordance with standards established by the Canadian Council of Animal Care.
# Surgery: The surgical technique was based on that described by Thompson et al. (Hypertension. 20(6):809-815, 1992). In brief, rats were anaesthetized with Hypnorm®/Nersed® (1:2:1 ratio of Hypnorm®:H2O:Versed® at a dose rate of 3 ml/kg i.p.). […] An additional catheter sat loosely in the abdominal cavity for intra-peritoneal administration of drugs. All catheters were tunneled subcutaneously, exteriorized at the nape of the neck and sutured into place. The catheters were filled with heparin saline (50 IU/ml) and sealed at the exposed end.
# as §1
# The NOS antagonist L-NAME was administered in increasing doses (1,3,10,30 mg/kg i.v.). MAP was measured after each dose when pressure reached steady state (10 min).
# [3] = Overshoot and rate of recovery of MAP following 30 second SNP depressor challenge; type: in vivo, rat; details: for Overshoot (mmHg) of MAP relative to control response: following SNP (10 μg/kg/min) depressor challenge, maximal blockade, 3 mg/kg L-NAME in TRZ combinations; for Rate of Recovery (mmHg/s): following SNP (30 μg/kg/min) depressor challenge, 10 second interval after onset of recovery; for Overshoot: Change vs Control: following SNP (10 mg/kg/min) depressor challenge; for Rate of Recovery: Change vs Control: following SNP (30 mg/kg/min) depressor challenge
# Experimental: as §1
# In Examples 2, 3 and 4, we used a 30 second infusion of SNP to induce a transient depressor response (less than 1 minute) in order to assess mechanisms involved in homeostatic adjustment, in each case comparing treatment to the respective control response (FIG. 8, Table 3). […] In contrast, after α1-adrenoceptor antagonism the response to the depressor challenge was altered such that there was a marked overshoot of MAP above baseline during the recovery phase. In some instances MAP took in excess of five minutes to return to baseline following the overshoot. […] This response was unchanged by NOS antagonism (FIG. 8b) and RAS inhibition (FIG. 8c).
# In addition, we characterized the rate of recovery of MAP as determined by the upward slope of the arterial blood pressure trace during a 10 second interval immediately after the onset of recovery (Table 4). […] In contrast, the combination of alpha-blockade and NOS antagonism doubled the magnitude of the recovery slope.
# [4] = Vascular reactivity: depressor response to NO-mimetic sodium nitroprusside (SNP) infusion; type: in vivo, rat; details: for Change in Vascular Response to SNP: Table 3; for depressor response to SNP: treatment alone at maximal blockade (L-NAME 30 mg/kg), SNP 1-30 μg/kg/min i.v.; for depressor response to SNP in the presence of L-NAME: treatment combined with L-NAME 3 and 30 mg/kg
# Experimental: as §1
# (§2) Data Analysis: Dose responses to N^ω-nitro-L-arginine-methyl ester (L-NAME, Sigma, Mo.) in terazosin- or prazosin-treated animals vs control were compared using unpaired, two-tailed t-test for each dose. […] In all cases a p value less than 0.05 was considered to be statistically significant.
# This set of experiments examined whether alpha-adrenoceptor antagonism and/or complete removal of α-signaling could also alter vascular reactivity to exogenous NO. […] Reactivity was then determined following minimal and maximal NOS blockade by administration of a low dose followed by a high dose of L-NAME (3 and 30 mg/kg L-NAME i.v., respectively). […] In these animals additional dose responses to each NO-donor were performed after initial alpha-adrenoceptor antagonism and before L-NAME treatment. Further assessment of the impact of removal of α1-adrenoceptor signaling was made through ganglionic blockade with hexamethonium (30 mg/kg i.v.). Down-stream sympathetic signaling is effectively abolished by completely blocking the ganglia with hexamethonium.
# [5] = Vascular reactivity: depressor response to NO-mimetic glyceryl trinitrate (GTN) infusion; type: in vivo, rat
# Experimental: as §1, §2
# NOS blockade hypertension also results in a hypersensitivity to NO-mimetics such as SNP and GTN. This set of experiments examined whether alpha-adrenoceptor antagonism and/or complete removal of α-signaling could also alter vascular reactivity to exogenous NO. Dose response curves to 30 second infusions of the NO-mimetics sodium nitroprusside (1-30 μg/kg/min SNP i.v.) or glyceryl trinitrate (25-1600 μg/kg/min GTN i.v.) were generated in control animals to determine normal vasodilatory reactivity to exogenous NO. Reactivity was then determined following minimal and maximal NOS blockade by administration of a low dose followed by a high dose of L-NAME (3 and 30 mg/kg L-NAME i.v., respectively). […] In these animals additional dose responses to each NO-donor were performed after initial alpha-adrenoceptor antagonism and before L-NAME treatment. Further assessment of the impact of removal of α1-adrenoceptor signaling was made through ganglionic blockade with hexamethonium (30 mg/kg i.v.). Down-stream sympathetic signaling is effectively abolished by completely blocking the ganglia with hexamethonium. After establishment of a control dose response to SNP, maximal ganglionic blockade was induced and MAP was allowed to reach a steady state. The vascular reactivity to SNP was reassessed after hexamethonium alone and following both a low then high dose of L-NAME (3 and 30 mg/kg L-NAME i.v., respectively).
# [6] = compared with the placebo group; cited from earlier work
# [7] = treatment alone at maximal blockade (L-NAME 30 mg/kg), GTN 25-1600 μg/kg/min i.v.
SMILES,Change in Depressor Response [1],Δ MAP L-NAME 100 mg/kg (mmHg) [1],Δ MAP Control (mmHg) [1],Overshoot (mmHg) of MAP relative to control response [3],Rate of Recovery (mmHg/s) [3],Overshoot: Change vs Control [3],Rate of Recovery: Change vs Control [3],Δ MAP (from initial baseline; mmHg) [2],Change in Vascular Response to SNP [4],depressor response to SNP [4],other results
"CC(C)NCC(O)c1ccc(O)c(O)c1 (stereo not drawn) [Isopropyl-norepinephrine (INE), Isopropyl-norepinephrine]",←→,−10.52 ± 4.04 mmHg,−9.42 ± 7.38 mmHg,–,–,–,–,–,–,–,–
CCCCC[C@H](O)/C=C/[C@H]1[C@H](O)CC(=O)[C@@H]1CCCCCCC(=O)O [PGE1],←→,−15.51 ± 9.74 mmHg,−15.21 ± 5.72 mmHg,–,–,–,–,–,–,–,–
CCCOc1ccc2c(c1)[C@@H](c1ccc(OC)cc1OCC(=O)O)[C@H](C(=O)O)[C@H]2c1ccc2c(c1)OCO2 [SB209670],–,–,–,0.5 ± 4.98 mmHg,1.4 ± 1.00 mmHg/s,←→,←→,–,–,–,"effect on MAP vs control ([2]; SB209670 alone): did not lower MAP significantly; MAP ([2]; SB209670 i.v. bolus then 100 μg/kg/min infusion, alone, control 98.29±6.43): 90.41±4.36 mmHg; MAP after terazosin treatment [2]: 51.83±4.02 mmHg; overshoot of MAP in treatment groups demonstrating overshoot ([3]; co-administration with alpha-adrenoceptor antagonist with or without NOS antagonist): abolished; enhanced SNP response with terazosin combined with moderate NOS antagonism ([4]; terazosin 2 mg/kg + L-NAME 3 mg/kg + SB209670): prevented; dose response to SNP after terazosin treatment ([4]; terazosin 2 mg/kg i.v. in animals receiving SB209670): significantly blunted"
"COC(=O)[C@@H](N)CCCNC(=N)N[N+](=O)[O-] [L-NAME, N^ω-nitro-L-arginine-methyl ester]",–,–,–,−1.6 ± 3.68 mmHg,1.2 ± 0.73 mmHg/s,←→,←→,36 ± 11.1 mmHg,↑,enhanced,"vascular reactivity to GTN ([5]; moderate NOS blockade, 3 mg/kg L-NAME alone): did not produce a significant change; depressor response to GTN [5, 7]: enhanced"
O=[N+]([O-])O[C@H]1CO[C@H]2[C@@H]1OC[C@H]2O[N+](=O)[O-] [isosorbide dinitrate],–,–,–,–,–,–,–,–,–,–,mortality among patients with chronic congestive heart failure [6]: reduced significantly
COc1cc2nc(N3CCN(C(=O)c4ccco4)CC3)nc(N)c2cc1OC [prazosin],–,–,–,–,–,–,–,–,–,–,"lowering of MAP after alpha-adrenoceptor antagonist ([2]; prazosin 3 mg/kg i.v. or terazosin 2 mg/kg i.v., steady state, conscious rats): 36.35±13.96 mmHg; mortality among patients with chronic congestive heart failure [6]: the same"
"COc1cc2nc(N3CCN(C(=O)C4CCCO4)CC3)nc(N)c2cc1OC (stereo not drawn) [Terazosin, terazosin]",–,–,–,45 ± 5.19 mmHg,1.2 ± 0.42 mmHg/s,↑,←→,−28 ± 18.5 mmHg,↑,enhanced,"decrease in MAP ([2]; losartan + enalaprilat 30 mg/kg i.p. 1:1 vs terazosin alone): 28.09±18.49; MAP after terazosin treatment [2]: 77.37±17.48 mmHg; depressor response to GTN ([5]; terazosin combined with moderate NOS blockade (3 mg/kg L-NAME)): significantly enhanced; depressor response to GTN [5, 7]: only statistically significant at the highest dose of GTN; depressor response to SNP in the presence of L-NAME [4]: enhanced relative to control"
CCCCc1nc(Cl)c(CO)n1Cc1ccc(-c2ccccc2-c2nn[nH]n2)cc1 [losartan],–,–,–,–,–,–,–,–,–,failed to increase the sensitivity,–
"Nc1nc2c(nc(Br)n2[C@@H]2O[C@@H]3COP(=O)(O)O[C@H]3[C@H]2O)c(=O)[nH]1 [8-Br-cGMP, 8-bromo-cyclic-GMP]",↑↑,−26.57 ± 6.76 mmHg,−0.67 ± 2.83 mmHg,–,–,–,–,–,–,–,–
"C[N+](C)(C)CCCCCC[N+](C)(C)C [Hexamethonium, hexamethonium]",–,–,–,–,–,–,–,−18 ± 10.0 mmHg,↑,induced an almost identical pattern of hypersensitivity,depressor response to SNP in the presence of L-NAME [4]: further enhanced
